In ChEMBL document CHEMBL3612029, “Design, synthesis and anticancer activity of Michael-type thiol adducts of α-santonin analogue with exocyclic methylene” (Eur J Med Chem, 2015) one finds IC50, Activity and inhibition data, which are given here for 25 compounds.

One test deals with PC-3. Description: Cytotoxicity against human PC3 cells assessed as growth inhibition after 48 hrs by sulphorhodamine B assay. In kind it is functional, cell-based. Conditions: PC-3, 48 h. A general note: The SRB assay estimates cell density from bound dye.
Another test concerns A549. Description: Cytotoxicity against human A549 cells assessed as growth inhibition after 48 hrs by sulphorhodamine B assay. Conditions: A549, 48 h. The class given is functional, cell-based.
Test [1] concerns MCF7. Description: Cytotoxicity against human MCF7 cells assessed as growth inhibition after 48 hrs by sulphorhodamine B assay. In kind it is functional, cell-based. Conditions: MCF7, 48 h.
The next test concerns HCT-116. The experiment in a line: Cytotoxicity against human HCT116 cells assessed as growth inhibition after 48 hrs by sulphorhodamine B assay. In kind it is functional, cell-based. As to conditions: HCT-116, 48 h.
Test [2] concerns MCF7. Description: Cell cycle arrest in human MCF7 cells assessed as accumulation at subG1 phase at 5 uM after 24 hrs by propidium iodide staining-based flow cytometric analysis (reference value: 4.8%). The class given is functional.
The test system of test [3] is MCF7. The experiment in a line: Cell cycle arrest in human MCF7 cells assessed as accumulation at subG1 phase at 1 uM after 24 hrs by propidium iodide staining-based flow cytometric analysis (reference value: 4.8%). In kind it is functional.
Test [4] deals with Transcription factor p65 (Homo sapiens) (UniProt Q04206). The experiment in a line: Inhibition of NF-kappa-B p65 subunit binding to DNA response element in human MCF7 cell nuclear lysates after 24 hrs.
Chain of Transcription factor p65 (Homo sapiens) (Q04206 whole entry): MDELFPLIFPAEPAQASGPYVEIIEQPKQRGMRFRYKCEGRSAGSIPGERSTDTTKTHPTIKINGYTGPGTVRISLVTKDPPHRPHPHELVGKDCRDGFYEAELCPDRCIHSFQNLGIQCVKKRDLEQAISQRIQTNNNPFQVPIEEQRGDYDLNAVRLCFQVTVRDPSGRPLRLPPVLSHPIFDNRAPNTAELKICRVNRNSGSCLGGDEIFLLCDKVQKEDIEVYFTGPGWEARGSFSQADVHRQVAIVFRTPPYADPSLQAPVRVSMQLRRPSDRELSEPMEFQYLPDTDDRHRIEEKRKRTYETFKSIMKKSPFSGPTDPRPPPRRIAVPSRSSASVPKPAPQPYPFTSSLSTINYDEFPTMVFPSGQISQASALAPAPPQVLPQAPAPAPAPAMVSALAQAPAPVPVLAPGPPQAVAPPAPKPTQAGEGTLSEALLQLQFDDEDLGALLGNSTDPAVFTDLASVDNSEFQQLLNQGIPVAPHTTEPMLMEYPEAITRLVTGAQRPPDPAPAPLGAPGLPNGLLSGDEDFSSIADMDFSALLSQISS
Test [5] has as its system MCF7. The experiment in a line: Cell cycle arrest in human MCF7 cells assessed as accumulation at subG1 phase at 1.5 uM after 24 hrs by propidium iodide staining-based flow cytometric analysis (reference value: 4.8%). In kind it is functional. A general note: Flow cytometry measures light scatter and fluorescence of single cells or particles in a stream.
The target in test [6] is Transcription factor p65 (Homo sapiens) (UniProt Q04206). Description: Inhibition of NF-kappa-B p65 subunit binding to DNA response element in human MCF7 cell nuclear lysates at 1 uM after 24 hrs relative to control.
Test [7] has the same target. The experiment in a line: Inhibition of NF-kappa-B p65 subunit binding to DNA response element in human MCF7 cell nuclear lysates at 1.5 uM after 24 hrs relative to control.
The target is the same in test [8]. The experiment in a line: Inhibition of NF-kappa-B p65 subunit binding to DNA response element in human MCF7 cell nuclear lysates at 2 uM after 24 hrs relative to control.
The subject of test [9] is MCF7. Description: Cell cycle arrest in human MCF7 cells assessed as accumulation at subG1 phase after 24 hrs by propidium iodide staining-based flow cytometric analysis. In kind it is functional.
Test [10] has as its target Transcription factor p65 (Homo sapiens) (UniProt Q04206). Description: Inhibition of NF-kappa-B p65 subunit binding to DNA response element in human MCF7 cell nuclear lysates at 3 uM after 24 hrs relative to control.
The subject of test [11] is MCF7. Description: Cell cycle arrest in human MCF7 cells assessed as accumulation at subG1 phase at 2 uM after 24 hrs by propidium iodide staining-based flow cytometric analysis (reference value: 4.8%). The class given is functional.

Each structure is given as a SMILES string. Bounds are passed on as bounds.

Regarding `CC1=C2[C@H]3OC(=O)[C@@H](CSc4ccc(F)cc4)[C@@H]3CC[C@@]2(C)C=CC1=O`, the 50% inhibitory concentration (IC50) was 4.5 µM in the test with PC-3, 1.1 µM in the test with A549, 7.3 µM in the test on MCF7 [1] and 0.8 µM in the test with HCT-116.

As for `CC1=C2[C@H]3OC(=O)[C@@H](CSc4ccccc4)[C@@H]3CC[C@@]2(C)C=CC1=O`, the IC50 is 25.9 µM with PC-3, 19.8 µM with A549, 25.2 µM in the test with MCF7 [1] and 19.1 µM in the test on HCT-116.

Consider `CC1=C2[C@H]3OC(=O)[C@@H](CSc4ccc(F)c(F)c4)[C@@H]3CC[C@@]2(C)C=CC1=O`, for which the concentration for half-maximal inhibition (IC50) was 2.9 µM with PC-3, 5.9 µM in the test with A549, 1 µM with MCF7 [1] and 0.7 µM in the test with HCT-116.

`CC1=C2[C@H]3OC(=O)[C@@H](C)[C@@H]3CC[C@@]2(C)C=CC1=O` [SANTONIN]: the IC50 with PC-3, in the test with A549, in the test with MCF7 [1] and with HCT-116 was more than 50 µM each time.

Take `CC1=C2[C@H]3OC(=O)[C@@H](CSc4ccc(Br)cc4C)[C@@H]3CC[C@@]2(C)C=CC1=O`: the IC50 with PC-3 was determined as 8.5 µM; in the test with A549, 10 µM; in the test with MCF7 [1] it was 8.5 µM; with HCT-116, 1.4 µM.

Consider `O=c1[nH]cc(F)c(=O)[nH]1` [FLUOROURACIL], for which the 50% inhibitory concentration (IC50) in the test on HCT-116 amounted to 4.5 µM.

Take `CC1=C2[C@H]3OC(=O)[C@@H](CSc4ccccc4Cl)[C@@H]3CC[C@@]2(C)C=CC1=O`: the concentration for half-maximal inhibition (IC50) in the test on PC-3 was 9.1 µM; in the test with A549 it was 6.6 µM; in the test on MCF7 [1], 23.2 µM; in the test on HCT-116, 16.6 µM.

Consider `CC[C@@]1(O)C(=O)OCc2c1cc1n(c2=O)Cc2cc3ccccc3nc2-1` [CAMPTOTHECIN], for which the Activity in the test with MCF7 [2] came out at 52.4%.

Consider `CCSC[C@@H]1C(=O)O[C@@H]2C3=C(C)C(=O)C=C[C@]3(C)CC[C@@H]12`, for which the IC50 amounted to 9.9 µM with PC-3, 12.2 µM with A549, 23.5 µM in the test with MCF7 [1] and 16.5 µM in the test with HCT-116.

As to `COc1ccccc1SC[C@@H]1C(=O)O[C@@H]2C3=C(C)C(=O)C=C[C@]3(C)CC[C@@H]12`, the IC50 in the test with PC-3 was 40.7 µM; in the test with A549, more than 50 µM; in the test with MCF7 [1] it was 36.1 µM; with HCT-116, 45.9 µM.

For the compound `CC1=C2[C@H]3OC(=O)[C@@H](CSc4ccccn4)[C@@H]3CC[C@@]2(C)C=CC1=O`, the figures for the Activity in the test with MCF7 [3] and in the test on MCF7 [5] were 38% and 44.6%, respectively. Also, the values for the inhibition result in test [4], in [6] and in test [7] were “Dose-dependent effect”, 27% and 43%, respectively. Further, the IC50 is 1.9 µM in the test on PC-3, 4.1 µM with A549, 0.4 µM in the test with MCF7 [1] and 0.5 µM in the test with HCT-116.

As to `CC1=C2[C@H]3OC(=O)[C@@H](CSC4CCCCC4)[C@@H]3CC[C@@]2(C)C=CC1=O`, the IC50 in the test on PC-3 is more than 50 µM; with A549, 45.2 µM; with MCF7 [1] it was more than 50 µM; in the test on HCT-116 it was more than 50 µM.

With `CC1=C2[C@H]3OC(=O)[C@@H](CSc4ccccc4F)[C@@H]3CC[C@@]2(C)C=CC1=O`, the IC50 is 2 µM in the test with PC-3, 1.8 µM in the test with A549, 1.2 µM in the test with MCF7 [1] and 0.9 µM in the test with HCT-116.

As for `CC1=C2[C@H]3OC(=O)[C@@H](CSc4ccc(Cl)cc4)[C@@H]3CC[C@@]2(C)C=CC1=O`, the inhibition in test [8] is 49%; in [4], “Dose-dependent effect”; in test [7], 36%; in [10], 62%. For the same compound, the Activity in the test on MCF7 [5] was 45.1%; in the test on MCF7 [9] it was “Dose-dependent effect”; with MCF7 [11], 46.6%. The IC50 is 2.1 µM with PC-3, 2.7 µM with A549, 1 µM in the test on MCF7 [1] and 0.8 µM in the test on HCT-116.

As for `COc1ccc(SC[C@@H]2C(=O)O[C@@H]3C4=C(C)C(=O)C=C[C@]4(C)CC[C@@H]23)cc1`, the IC50 with PC-3 was 13.1 µM; with A549 it was 8.9 µM; with MCF7 [1], 21.4 µM; in the test on HCT-116, 24.9 µM.

Consider `CC1=C2[C@H]3OC(=O)[C@@H](CSc4ccc(C)cc4)[C@@H]3CC[C@@]2(C)C=CC1=O`, for which the IC50 with PC-3 stood at 5.7 µM; in the test on A549 it was 7.4 µM; with MCF7 [1], 6 µM; in the test on HCT-116, 12.1 µM.

As for `CC1=C2[C@H]3OC(=O)[C@@H](CSc4nc5ccccc5c(=O)[nH]4)[C@@H]3CC[C@@]2(C)C=CC1=O`, the IC50 with PC-3 stood at 31.1 µM; with A549, 18.3 µM; in the test with MCF7 [1], 17.2 µM; with HCT-116 it was 20.3 µM.

In the case of `CC1=C2[C@H]3OC(=O)[C@@H](CSc4ccccc4C)[C@@H]3CC[C@@]2(C)C=CC1=O`, the 50% inhibitory concentration (IC50) in the test with PC-3 was 20.7 µM; with A549, 0.9 µM; in the test on MCF7 [1], 20.9 µM; in the test with HCT-116, 21.5 µM.

For the compound `CC1=C2[C@H]3OC(=O)[C@@H](CSc4ccc(C)c(Br)c4)[C@@H]3CC[C@@]2(C)C=CC1=O`, the IC50 with PC-3 amounted to 31 µM; in the test on A549, 4.1 µM; in the test with MCF7 [1], 20.2 µM; with HCT-116, 0.8 µM.

`CC1=C2[C@H]3OC(=O)[C@@H](CSc4ncc[nH]4)[C@@H]3CC[C@@]2(C)C=CC1=O`: the IC50 was found to be 4.7 µM in the test with PC-3, 8.8 µM in the test on A549, 2.4 µM in the test with MCF7 [1] and 0.8 µM with HCT-116.

Regarding `CC1=C2[C@H]3OC(=O)[C@@H](CSc4ccccc4Br)[C@@H]3CC[C@@]2(C)C=CC1=O`, the IC50 in the test with PC-3 worked out at 2.6 µM; with A549, 2.8 µM; in the test on MCF7 [1], 2.3 µM; in the test on HCT-116 it was 1.1 µM.

With `CC1=C2[C@H]3OC(=O)[C@@H](CSc4ccc(Br)cc4)[C@@H]3CC[C@@]2(C)C=CC1=O`, the Activity is 36.8% in the test on MCF7 [3], 44.5% in the test on MCF7 [5] and “Dose-dependent effect” in the test on MCF7 [9]. In addition, the figures for the inhibition in test [8], in test [4] and in [7] were 57%, “Dose-dependent effect” and 45%, respectively. For the same compound, the IC50 came to 1.5 µM in the test with PC-3, 2.4 µM with A549, 0.6 µM with MCF7 [1] and 1.2 µM in the test on HCT-116.

For the compound `CC1=C2[C@H]3OC(=O)[C@@H](CSc4ccccc4N)[C@@H]3CC[C@@]2(C)C=CC1=O`, the IC50 was found to be 10.8 µM with PC-3, 30.7 µM in the test with A549, 7.8 µM in the test on MCF7 [1] and 13 µM in the test with HCT-116.

Turning to `CC1=C2[C@H]3OC(=O)[C@@H](CSc4nc5ccccc5n4C)[C@@H]3CC[C@@]2(C)C=CC1=O`, the half-inhibitory concentration (IC50) in the test with PC-3 is 34.9 µM; in the test with A549, 42 µM; in the test on MCF7 [1] it was 39.2 µM; in the test with HCT-116, 20.7 µM.

On to `C=C1C(=O)O[C@@H]2C3=C(C)C(=O)C=C[C@]3(C)CC[C@@H]12`, for which the IC50 in the test on PC-3 is 32.7 µM; in the test on A549, more than 50 µM; in the test with MCF7 [1] it was 25.2 µM; in the test on HCT-116, 31.5 µM.

Broadly, the IC50 is the concentration that inhibits the measured activity by half. Usually inhibition stands for the share of the control response that was lost under treatment.
